Data on one molecule can be found in paper PMC12591375 (British journal of pharmacology, 2022).

What all share (assay type): cell-based
The target in experiment [1] is T1, CB2 (Homo sapiens, UniProt P34972, Q63R). The experiment in a line: β-arrestin 1 translocation real-time BRET assay. To be noted: HEK 293 cells. For orientation: BRET reads energy transfer from a luciferase to a nearby fluorophore.
Experiment [2] concerns the target T1, CB2. The experiment in a line: β-arrestin 1 translocation real-time BRET assay. To be noted: pEC50, β-arrestin 1 translocation to CB2, HEK 293 cells.
The target in experiment [3] is T1, CB2. The experiment in a line: β-arrestin 2 translocation real-time BRET assay, wild-type CB2. To be noted: for Span, β-arrestin 2 translocation to CB2: HEK 293 cells.
For experiment [4], the target named is T1, CB2. Described as above. The following applies: pEC50, β-arrestin 2 translocation to CB2, HEK 293 cells, mock (no GRK), Table 2.

Marks after values point to notes of the source that are not given here.

In general, EC50 refers to the concentration needed to bring the measured effect to its halfway point. Low values mean an effect from little substance, high ones a need for much substance.

T1 sequence (P34972 whole entry Q63R): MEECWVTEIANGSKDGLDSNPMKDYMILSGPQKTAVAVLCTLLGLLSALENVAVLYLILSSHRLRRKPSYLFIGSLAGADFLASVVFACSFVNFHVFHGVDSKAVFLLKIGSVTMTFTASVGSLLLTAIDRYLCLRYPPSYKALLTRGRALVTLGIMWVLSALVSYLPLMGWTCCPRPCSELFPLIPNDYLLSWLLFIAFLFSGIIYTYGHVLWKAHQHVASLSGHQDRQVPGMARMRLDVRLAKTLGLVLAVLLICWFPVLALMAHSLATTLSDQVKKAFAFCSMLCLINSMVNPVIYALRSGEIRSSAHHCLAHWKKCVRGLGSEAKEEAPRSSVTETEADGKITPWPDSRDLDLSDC

Turning to `CCCCC/C=C\C/C=C\C/C=C\C/C=C\CCCC(=O)OC(CO)CO` [2-AG, 2-Arachidonoylglycerol], the “Span, β-arrestin 1 translocation to CB2” value is 83.57 (2.82) ^* ΔBRET.s in experiment [1] (coexpression of GRK1); 71.73 (3.39) ^* ΔBRET.s in experiment [1] (coexpression of GRK2); 68.57 (2.99) ^* ΔBRET.s in experiment [1] (coexpression of GRK3); 62.00 (2.72) ΔBRET.s in experiment [1] (coexpression of GRK4); 65.96 (1.69) ^* ΔBRET.s in experiment [1] (coexpression of GRK5); 74.27 (4.00) ^* ΔBRET.s in experiment [1] (coexpression of GRK6). Also, the “Span, β-arrestin 1 translocation to CB2” value in experiment [1] (mock (no GRK)) was 56.14 (1.52) ΔBRET.s. In addition, the half-maximal effective concentration (EC50) in experiment [2] (coexpression of GRK1) is 3.24 µM; in experiment [2] (coexpression of GRK2) it was 2.29 µM; in experiment [2] (coexpression of GRK3) it was 2 µM; in experiment [2] (coexpression of GRK4), 2.88 µM; in experiment [2] (coexpression of GRK5), 3.63 µM; in experiment [2] (coexpression of GRK6), 3.31 µM. Moreover, the concentration giving a half-maximal response (EC50) was 3.55 µM in experiment [2] (mock (no GRK)) and 2290 nM in experiment [4]. Further, the “Span, β-arrestin 2 translocation to CB2” value in experiment [3] (coexpression of GRK1, Table 2) is 198.6 (8.08) ΔBRET.s; in experiment [3] (coexpression of GRK2, Table 2), 165.5 (10.92) ^* ΔBRET.s; in experiment [3] (coexpression of GRK3, Table 2) it was 164.7 (9.83) ^* ΔBRET.s; in experiment [3] (coexpression of GRK4, Table 2), 191.3 (6.31) ΔBRET.s; in experiment [3] (coexpression of GRK5, Table 2), 157.1 (4.07) ^* ΔBRET.s; in experiment [3] (coexpression of GRK6, Table 2), 158.6 (6.39) ^* ΔBRET.s. Besides, in experiment [3] (mock (no GRK), Table 2), the “Span, β-arrestin 2 translocation to CB2” value is recorded as 204.9 (14.67) ΔBRET.s. The “lowering of efficacy of β-arrestin 2 translocation by GRK coexpression” value in experiment [3] (coexpression of GRK2, GRK3 and GRK5 versus mock) is given as 10–20%.
